According to patent US20150105252A1, “SUBSTITUTED PYRAZOLES AS HERBICIDES” (E I DU PONT DE NEMOURS AND COMPANY, priority 2013, published 2015):

What was measured:
[1] = system: barnyardgrass; assay: Test A preemergence; format: in vivo, Echinochloa crus-galli
Method in brief: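 Pre- and postemergence greenhouse test; loam+sand; cpd in non-phytotox. solvent/surfactant; post at 1–2 leaf, 2–10 cm; visual score ~10 d, 0 = none, 100 = complete control.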

[2] = system: nutsedge, yellow; assay: Test C postemergence; format: in vivo, Cyperus esculentus; conditions: for Nutsedge, Yellow plant response rating: scale 0 to 100; for Plant response rating (scale of 0 to 100 where 0 is no effect and 100 is complete control), Nutsedge, Yellow: visually evaluated after 13 to 15 days
From the text: (§1) Seeds of plant species selected from blackgrass (Alopecurus myosuroides), ryegrass, Italian (Italian ryegrass, Lolium multiflorum), wheat (winter wheat, Triticum aestivum), galium (catchweed bedstraw, Galium aparine), corn (Zea mays), crabgrass, large (large crabgrass, Digitaria sanguinalis), foxtail, giant (giant foxtail, Setaria faberii), johnsongrass (Sorghum halepense), lambsquarters (Chenopodium album), morningglory (Ipomoea coccinea), nutsedge, yellow (yellow nutsedge, Cyperus esculentus), pigweed (redroot pigweed, Amaranthus retroflexus), ragweed (common ragweed, Ambrosia elation), soybean (Glycine max), barnyardgrass (Echinochloa crus-galli), oilseed rape (Brassica napus), waterhemp (common waterhemp, Amaranthus rudis), oat, wild (wild oat, Avena fatua), kochia (Kochia scoparia), Surinam grass (Brachiaria decumbens), foxtail, green (green foxtail, Setaria viridis), goosegrass (Eleusine indica), bromegrass, downy (downy bromegrass, Bromus tectorum), nightshade (eastern black nightshade, Solanum ptycanthum), cocklebur (common cocklebur, Xanthium strumarium), cupgrass, woolly (woolly cupgrass, Eriochloa villosa), bermudagrass (Cynodon dactylon), sunflower, (common oilseed sunflower, Helianthus annuus), Russian thistle (Salsola kali), and velvetleaf (Abutilon theophrasti) were planted into a blend of loam soil and sand and treated preemergence with test chemicals formulated in a non-phytotoxic solvent mixture which included a surfactant.
(§2) At the same time, plants selected from these crop and weed species and also chickweed (common chickweed, Stellaria media), canarygrass (littleseed canarygrass, Phalaris minor), and deadnettle (henbit deadnettle, Lamium amplexicaule), were planted in pots containing Redi-Earth® planting medium (Scotts Company, 14111 Scottslawn Road, Marysville, Ohio 43041) comprising spaghnum peat moss, vermiculite, wetting agent and starter nutrients and treated with postemergence applications of test chemicals formulated in the same manner. Plants ranged in height from 2 to 18 cm (1- to 4-leaf stage) for postemergence treatments. Treated plants and controls were maintained in a greenhouse for 13 to 15 days, after which time all species were compared to controls and visually evaluated. Plant response ratings, summarized in Table C, are based on a scale of 0 to 100 where 0 is no effect and 100 is complete control. A dash (-) response means no test result.

[3] = system: wheat; assay: Test C preemergence; format: in vivo, Triticum aestivum
From the text: as §1, §2

[4] = Preemergence, 1000 g ai/ha, 0 to 100 scale, 0 no effect, 100 complete control
[5] = postemergence, 250 g ai/ha, scale 0 to 100 (0 no effect, 100 complete control)
[6] = postemergence, 62 g ai/ha, scale 0 to 100, 0 no effect, 100 complete control
[7] = postemergence, 125 g ai/ha, scale 0 to 100, 0 no effect, 100 complete control
[8] = Preemergence, 500 g ai/ha, 0 to 100 scale, 0 no effect, 100 complete control
[9] = preemergence, 125 g ai/ha, visual injury, 0 to 100 scale, approx. 10 days
[10] = preemergence, 500 g ai/ha, visual injury after approx. 10 days, 0 to 100 scale (0 no effect, 100 complete control)
[11] = preemergence, 31 g ai/ha, visual rating, scale 0 to 100 (0 no effect, 100 complete control), 13 to 15 days
[12] = preemergence, 62 g ai/ha, scale 0 to 100 (0 no effect, 100 complete control), 13 to 15 days
[13] = preemergence, 125 g ai/ha, scale 0 to 100, 0 is no effect, 100 is complete control
[14] = preemergence, 125 g ai/ha, 13 to 15 days, scale 0 to 100, 0 = no effect, 100 = complete control
[15] = preemergence, 250 g ai/ha, scale 0 to 100, 0 is no effect, 100 is complete control

Structure (SMILES)	Plant response rating, Nutsedge, Yellow [2, 5]	Plant response rating, Nutsedge, Yellow [2, 7]	Barnyardgrass plant response rating [1, 9]	Nutsedge, Yellow plant response rating ([2]; postemergence, 62 g ai/ha)	Plant response rating (scale of 0 to 100 where 0 is no effect and 100 is complete control), Nutsedge, Yellow ([2]; Postemergence, 31 g ai/ha)	Barnyardgrass plant response rating [1, 10]	Wheat plant response rating [3, 11]	Wheat plant response rating [3, 12]	Plant response rating, Wheat [3, 14]	Wheat plant response rating [3, 15]	further results
CCc1cc(C(=O)NCC(F)(F)F)nn1Cc1cccc(OC(F)(F)F)c1 [Compound 20]	0	0	–	–	–	–	–	–	–	–	Barnyardgrass plant response rating [1, 4]: 80; Nutsedge, Yellow plant response rating ([2]; Postemergence, 31 g ai/ha): 0; Plant response rating, Nutsedge, Yellow [2, 6]: 0
CCCNC(=O)c1cc(CC)n(Cc2cccc(OC(F)(F)F)c2)n1 [Compound 27]	0	0	–	–	–	–	–	–	–	–	Barnyardgrass plant response rating [1, 4]: 50; Nutsedge, Yellow plant response rating ([2]; Postemergence, 31 g ai/ha): 0; Plant response rating, Nutsedge, Yellow [2, 6]: 0
CCCNC(=O)c1cc(CC)n(Cc2ccnc(C(F)(F)F)c2)n1 [Compound 75]	–	10	100	5	–	–	–	–	–	–	Barnyardgrass plant response rating [1, 8]: 100; Plant response rating (scale of 0 to 100), Nutsedge, Yellow ([2]; Postemergence, 16 g ai/ha): 0; Nutsedge, Yellow plant response rating ([2]; Postemergence, 31 g ai/ha): 5
CCc1cc(C(=O)NC2CC2)nn1Cc1ccnc(C(F)(F)F)c1 [Compound 76]	5	5	80	5	5	–	–	–	–	–	Barnyardgrass plant response rating [1, 8]: 100
CCc1cc(C(=O)NCC(F)(F)F)nn1Cc1nc(C(F)(F)F)nn1C [Compound 107]	40	5	100	0	0	100	5	15	–	–	Plant response rating (scale of 0 to 100), Wheat ([3]; Preemergence, 250 g ai/ha): 50; Wheat plant response rating [3, 13]: 50
CCc1cc(C(=O)NCC(F)(F)F)nn1Cc1cc(C(F)(F)F)nn1C [Compound 108, 5-ethyl-1-[[1-methyl-3-(trifluoromethyl)-1H-pyrazole-5-yl]methyl]-N-(2,2,2-trifluoroethyl)-1H-pyrazole-3-carboxamide]	25	0	90	0	0	100	10	10	–	–	Plant response rating (scale of 0 to 100), Wheat ([3]; Preemergence, 250 g ai/ha): 70; Wheat plant response rating [3, 13]: 60
CCc1cc(-c2ccc(C(F)(F)F)cc2)nn1Cc1ccnc(C(F)(F)F)c1 [Compound 110]	10	10	100	10	5	100	–	–	–	–	–
CCc1cc(C(=O)NOC(C)C)nn1Cc1ccnc(OC(F)F)c1 [Compound 126]	15	5	90	5	5	100	45	80	–	–	Plant response rating (scale of 0 to 100), Wheat ([3]; Preemergence, 250 g ai/ha): 90; Wheat plant response rating [3, 13]: 90
CCONC(=O)c1cc(CC)n(Cc2ccnc(OC(F)F)c2)n1 [Compound 131]	20	10	100	5	5	100	45	85	50	–	Plant response rating (scale of 0 to 100), Wheat ([3]; Preemergence, 250 g ai/ha): 95
CCCNC(=O)c1cc(OCC)n(Cc2ccnc(OC(F)F)c2)n1 [Compound 136]	5	5	100	5	5	100	10	65	95	95	–
CCOc1cc(C(=O)NCC(F)(F)F)nn1Cc1cc(C(F)(F)F)nn1C [Compound 140]	–	–	90	–	–	100	35	–	–	–	Plant response rating, Wheat ([3]; Preemergence, 4 g ai/ha, scale 0 to 100): 0; Plant response rating, Wheat ([3]; Preemergence, 8 g ai/ha, scale 0 to 100): 0; Plant response rating, Wheat ([3]; Preemergence, 16 g ai/ha, scale 0 to 100): 0
O=C(NC1CC1)c1cc(CCCl)n(Cc2ccnc(C(F)(F)F)c2)n1 [Compound 144]	35	5	100	5	10	100	5	40	80	90	–
CCOc1cc(C(=O)NOC(C)C)nn1Cc1ccnc(C(F)(F)F)c1 [Compound 153]	15	20	90	5	5	100	15	85	90	90	–
CCNC(=O)c1cc(CC)n(Cc2cc(C(F)(F)F)nn2C)n1 [Compound 154]	5	5	90	0	0	100	0	5	50	90	–
O=C(NCC(F)(F)F)c1cc(CCF)n(Cc2ccnc(C(F)(F)F)c2)n1 [Compound 175]	–	–	100	–	–	100	0	50	85	90	–
CCCc1cc(C(=O)NC(C)C)nn1Cc1ccnc(C(F)(F)F)c1 [Compound 186]	15	5	–	5	5	100	80	90	90	90	Barnyardgrass plant response rating (0 to 100 scale, 0 is no effect, 100 is complete control) ([1]; preemergence, 125 g ai/ha, visual injury approx. 10 days after treatment): 100
